Measurements: patent publication US11738099B2, “Molecular probes and methods of use” (CASE WESTERN RESERVE UNIVERSITY, priority 2014, dated 2023)
Where a SMILES comes first, the peptide text is derived from it. The star is where a group is joined. X1 = O=C(O)CN1CCN(CC(=O)O)CCN(CC(O)Cn2cc(CCCC(=O)*)nn2)CCN(CC(=O)O)CC1; PEG2 = NCCOCCOCCC(=O)O

What was measured:
[1] = tested on: PC3 prostate tumor xenografts; assay: T1-weighted MRI at 1 Tesla, PC3 tumors (Example 3); format: in vivo, mouse
Experimental: Male athymic nude mice were purchased from Case Comprehensive Cancer Center (Cleveland, Ohio, USA) and housed in the Animal Core Facility at Case Western Reserve University. All animal experiments were performed in accordance with the animal protocol approved by the CWRU Institutional Animal Care and Use Committee. Athymic nude male mice were subcutaneously injected with 100 μL cell suspension (4×10^7 cells/mL) in matrigel matrix (Corning Bioscience, Corning, N.Y.) to initiate tumors. Mice with tumors of 5-8 mm in diameter were used for imaging studies.
MR images of tumor bearing mice were acquired on an Aspect M3 small animal MRI scanner (1 Tesla). Mice were placed on a holder with the temperature maintained at 37° C., with isoflurane/oxygen mixture supplied to the mice through a nose cone. A thin catheter filled with PBS was connected to a tail vein of the mice. After mice were placed in the coil, a pilot scan was performed to adjust mice to the proper location in the coil. An axial T1 weighted sequence (TR=500 ms; TE=9 ms; Flip angle=90°; Field of view=3 cm×3 cm; Matrix size=128×128×8; slice thickness=2 mm; interslice distance=1 mm) was then used to acquire the images of the tumors before and 10 min, 20 min and 30 min after contrast injection. Images were exported into DICOM data, which were then processed and analyzed using Matlab (Natick, Mass., USA). The contrast to-noise ratio of tumors in the images were calculated as the difference between tumor mean intensity minus muscle mean intensity, divided by the noise.

[2] = In vivo transmetallation and urinary excretion; set-up: species or system mouse; conditions: 0.1 mmol-Gd/kg
Experimental: Balb/c mice (Charles River Laboratories, Wilmington, Mass., USA) were randomly divided into groups of ZD2-Gd(HP-DO3A) and ProHance (n=5) and placed in the metabolism cages, 48 hours prior to injection. […] Urine samples were collected at 12 h pre-injection, and then 8, 24, 48, and 72 h post-injection from the metabolic box. The collected urine samples were centrifuged at 4,000 rpm for 15 min. The concentration of Gd(III), Zn(II), Cu(H), and Ca(II) in the supernatant of the urine samples was determined by ICP-OES after appropriate dilutions.

[3] = Relaxivity at 1.5T in water, 37° C.; format: physicochemical
Experimental: Relaxivity is an important parameter for an MR contrast agent. It reflects how the relaxation rate of the surrounding water proton changes as a function of concentration, and it is directly associated with the agent's contrast enhancing capability during imaging. The relaxivity of the 4 contrast agents was tested at 37° C. in water and compared to Gd(HP-DO3A), Gd-DOTA and ZD2-Gd(HP-DO3A) (FIG. 26). […] Compared to Gd(HP-DO3A), Gd-DOTA, the size increase of the targeted contrast agents due to the peptides and PEG spacer could result in an increase of τR,^[42, 43] thus leading to higher relaxivities.

[4] = tested on: LNCaP prostate tumor xenografts; assay: In vivo T1-weighted MRI at 7T, LNCaP tumors; set-up: species or system mouse
Experimental: (§1) All MRI experiments were performed on a horizontal 7T Bruker scanner (Bruker Biospin Co., Billerica, Mass.). Imaging experiments were performed when the tumor size reached 5-8 mm in diameter. ZD2-Gd(HP-DO3A) was administered intravenously at the dose of 0.1 mmol/kg after acquiring pre-contrast images. Post-contrast images were obtained at 10 min interval up to 30 min. The axial slices of mouse at the tumor location were acquired using T1-weighted spin echo sequence with the following parameters: field of view (FOV): 3 cm; slice thickness: 1.2 mm; interslice distance: 1.2 mm; TR: 500 ms, TE: 8.1 ms; flip angle: 90°; average: 2; matrix size: 128×128. Contrast-to-noise ratio (CNR) at each time point was calculated by subtraction of the average signal intensity in the tumor and muscle, divided by the standard deviation of image noise. ProHance® (gadoteridol) was used as a control in the imaging experiments.

[5] = r1 relaxivity by T1 mapping in PC3 tumor lysates; format: physicochemical
[6] = Relaxivity measurement at 3T; format: physicochemical
Experimental: The design of the EDB-FN targeted MRI agent was based on a modular system that forms small molecular contrast agent in conjugation with l-ZD2. Compound 1 in FIG. 7A was prepared by adding a short PEG linker, followed by reacting with 5-hexynoic acid, resulting in an alkyne group for conjugation through click chemistry. The final product from reaction of compound 1 and 2 was purified with HPLC and characterized with Maldi-Tof spectrum.

[7] = Relaxivity measurement at 7T in PBS; format: physicochemical
Experimental: To accurately capture T1 maps, a fast T1 mapping method was developed. This accelerated multi-slice T1-mapping method combines a saturation recovery look-locker sequence and spiral k-space sampling^40. The NMR tubes filled with 3.12-50 μM ZD2-Gd(HP-DO3A) were positioned in a mouse coil and scanned with T1-weighted spin echo sequence, cartesian T1-mapping sequence, and spiral T1-mapping sequence. Axial images were acquired. CNR values from the T1-weighted sequence were calculated from signal from the samples subtracting surrounding water signal, and divided by noise. T1 values of the samples were reconstructed by fitting signal change during the acquisition time to the adapted T1-relaxation curve.

[8] = tested on: PC3 tumors
Experimental: (§2) The following imaging parameters were used for T1 mapping methods: flip angle 10°; echo time 2.09 ms; slice thickness 1 mm; number of average 1; field of view 3×3 cm^2; matrix size 128×128. For each slice, 50 images that covered 5 s of the saturation recovery curve were acquired within an interval of 100 ms. Proton density (Mn) images were acquired with repetition time (TR) of 2 s. Cartesian MRSLL images were also acquired as a validation of spiral MRSLL method. Center 64 k-space lines were acquired in Cartesian method as described previously. Other acquisition parameters were the same as spiral MRSLL.
(§3) Quantitative T1 maps of the tumors were acquired before and at 30 min after the injection of ZD2-Gd(HP-DO3A) and ProHance. […] At the end of the T1 map acquisitions, the mice were sacrificed and the Gd concentration in their tumors was measured by inductively coupled plasma optical emission spectrometry (ICP-OES).

[9] = tested on: LNCaP tumors; conditions: 30 min after injection; before injection 3.21±0.12 s
Experimental: as §2, §3

[10] = tested on: PC3 prostate tumor xenografts; assay: In vivo T1-weighted MRI at 7T, PC3 tumors; set-up: species or system mouse
Experimental: as §1

[11] = 0.1 mmol/kg i.v., up to 30 min, 7T

## CC(C)[C@H](NC(=O)[C@@H](NC(=O)CCOCCOCCNC(=O)CCCc1cn(CC(O)CN2CCN(CC(=O)O)CCN(CC(=O)O)CCN(CC(=O)O)CC2)nn1)[C@@H](C)O)C(=O)N[C@@H](CCCNC(=N)N)C(=O)N[C@H](C(=O)N[C@@H](CO)C(=O)N[C@@H](C)C(=O)N[C@@H](CC(=O)O)C(=O)O)[C@@H](C)O (some centres unmarked) [ZD2-Gd(HP-DO3A)] ({X1-PEG2}-TVRTSAD-OH)
[1]; 0.1 mmol/kg i.v., up to 30 min, 1 Tesla
  signal enhancement in PC3 tumors: Strong signal enhancement
[1]; 10 min after injection
  increase of contrast-to-noise ratio (CNR) in PC3 tumors: over two-fold increase
[2]
  urine concentration of endogenous metal ions post-injection vs pre-injection: without any significant increase
[2]; mouse, in vivo, iv, within 24 hours post-injection, read-out: injected dose excreted in urine
  dose excreted: > 95%
[3]
  r1: 5.4 mM⁻¹ s⁻¹
[4]; [11]
  signal enhancement in LNCaP tumors: significantly lower signal enhancement
[4]; 10-30 min post-injection
  CNR in LNCaP tumors: 6-9
[4]; during the first 30 min after injection
  increase of CNR in LNCaP tumors: 10-60%
[4]; first 30 min
  CNR in LNCaP tumors relative to PC3 tumors: more than two times lower
[5]
  r1 relaxivity: 4.12 mM⁻¹ s⁻¹
[6]
  relaxivities (T1 and T2): relatively high relaxivities
[7]
  T1 relaxivity: 3.7 mM⁻¹ s⁻¹
[8]; 30 min after injection, before injection 2.75±0.05 s
  tumor T1: 1.81 ± 0.07 s
[8]; among all cases (PC3/LNCaP, ZD2-Gd(HP-DO3A)/ProHance)
  change in relaxation rate (ΔR1): highest relaxation rate change
[8]; mouse, in vivo
  Gd concentration in PC3 tumors by ICP-OES: significantly higher concentration
[9]
  tumor T1: 2.54 ± 0.13 s
[10]; [11]
  signal enhancement in PC3 tumors: Strong signal enhancement
[10]; 0.1 mmol/kg with 0.5 mmol/kg free ZD2 peptide
  signal enhancement and CNR in PC3 tumors with co-injection of free ZD2 peptide: significantly reduced
[10]; 10-30 min post-injection
  CNR in PC3 tumors: 12-25
[10]; 10 min after injection
  increase of CNR in PC3 tumors: over two-fold increase
[10]; 30 min
  increase of CNR in PC3 tumors: over five-fold increase
[10]; 30 min (peak), n=5, SEM
  CNR in PC3 tumors: 23.7±1.68
[10]; mouse, in vivo
  contrast enhancement in other organs and normal tissues: did not produce significant contrast enhancement
